Experimental data from US20260097047A1, “Small molecule inhibitors of the ribosome biogenesis factor NVL2” (Board of Regents, The University of Texas System, priority 2023, published 2026).

Tests used:
[1] = system: HCT116 NVL^H304R cells; experiment: Cell viability in HCT116 NVL^H304R knock-in cells; assay type: cell-based; details: Homo sapiens, HCT-116
Text: From whole exome sequencing, we identified variants that were acquired during IAA-induced mutagenesis with the hypothesis that genes related to resistance will be mutated in multiple clones. Two genes contained acquired variants in at least 3 of the 15 selected clones: TERT, mutated in 3 of 15 clones, and NVL, mutated in all 15 clones. […] In sum, 57 out of 59 unique clones harbored NVL mutations. The majority of mutations clustered within the D1 AAA+ ATPase domain and frequently affecting the same codons. […]
HCT116 cells were transfected with TransIT-LT (Mirus #MIR2304) according to manufacturer's protocol with a guide RNA (either mock or NVL targeting) in the px330 vector (Addgene, #42230), and 10 nM single stranded deoxyoligonucleotide encoding a specific NVL mutation (see below for specific sequences). […] The resulting cells were evaluated by cresyl violet staining or collected and the relevant NVL mutations were analyzed by either amplicon or sanger sequencing.
Cell viability assay: In 96-well assay plates (Corning #2903), 2,000 cells were plated per well in 100 μL of medium and allowed to adhere overnight. […] Luminescence (CellTiter-Glo) was recorded using a Synergy 2 microplate reader (BioTek). […]

[2] = system: iHCT116 cells; experiment: Growth inhibition of engineered iHCT116 cells; assay type: cell-based; details: Homo sapiens
Text: We recently described an isogenic forward genetic system to rapidly find mutations conferring resistance to compounds with anti-proliferative activity (32). This system uses an engineered colorectal cancer HCT116 cell line (iHCT116) in which the addition of indole acetic acid (IAA) initiates a ubiquitin-mediated degradation of the DNA mismatch repair protein MLH1, thereby providing a mechanism to temporarily increase mutation rates. We applied this strategy to MM017, a dibenzothiazepinone identified in a high-throughput small molecule screen for HCT116 cytotoxicity. […] We exposed barcoded iHCT116 cells, that had previously been cultured either with (Mutagenesis-on) or without IAA (Mutagenesis-off), to increasingly lethal doses of MM017.

[3] = system: HCT116 control and p53 KO cells; experiment: Cell death by loss in membrane permeability, HCT116 control and p53 KO cells; assay type: cell-based, human; details: five-day treatment
[4] = system: p53 and p21 in HCT116 NVL^WT tumors; experiment: Pharmacodynamic study: p53 and p21 in HCT116 NVL^WT xenograft tumors; assay type: in vivo, mouse; details: 35 mg/kg IP
Protocol: Plasma exposure was dose-dependent up to 35 mg/kg (IP injection) reaching a maximum concentration at 17.86 μM. These levels exceed the anti-proliferative IC99 of MM927 in cells expressing either human or mouse NVL. In a subsequent pharmacodynamic (PD) study, we asked if we could assess on-target NVL inhibition via a subsequent p53 and/or p21 induction in tumor xenografts in mice treated with MM927. We implanted HCT116 NVL^WT and NVL^R403W cells subcutaneously on either flank of the mice and evaluated the levels of p53 and p21 in either tumor at various time points after IP administration of 35 mg/kg of MM927.
Pharmacodynamic study: Five million parental HCT116 cells or HCT116 NVL^R403W in a volume of 0.1 mL were implanted using a subcutaneous injection in the left and right side of four-to-eight-week-old male and female NSG mice, respectively. Tumor volumes were measured every 2 to 4 days with calipers. When the tumor diameter reached 0.5 cm in diameter, mice were dosed with 35 mg/kg MM927 or vehicle formulated as 10% DMSO/10% Kolliphor EL/10% Solutal/70% D5W and administered via the intraperitoneal route. At each time point (0, 3, 6, 12, 24 hours post dose), tumors were harvested and flash frozen for Western blot analysis for p53 and p21 as described.

[5] = Toxicity read-outs in efficacy study (body weight, blood counts, blood chemistry); assay type: in vivo; details: 35 mg/kg IP twice a day for 21 days
Protocol: Having established the kinetics of MM927 mediated NVL inhibition in xenograft tumors, we administered 35 mg/kg MM927 IP twice a day for 21 days to mice harboring tumors derived from either HCT116 NVL wild type or NVL^R403W cells. […] Taken together, we concluded that the potent, and bioavailable analog MM927 reduces tumor growth in mouse xenografts by inhibiting NVL without toxicity.
Efficacy study: Five million parental HCT116 cells or HCT116 NVL^R403W in a volume of 0.1 mL were implanted in the right flank. Tumor volumes were measured every 2 to 4 days with calipers. Volume is calculated as [(L*W^2)*3.14]/6. When volumes reached ˜110 mm^3, treatment was started with 35 mg/kg MM927 or vehicle control (0.2 mL/mouse) twice a day for 21 days. Mice were euthanized at the end of the 21-day treatment period or when any tumor reached 2 cm in its largest diameter, in agreement with the approved animal protocol. At the end of treatment, blood and tumor tissue were collected for pharmacokinetic analysis, measurement of complete blood counts, and blood chemistry measurements as described. Serum alanine transaminase and blood urea nitrogen were analyzed using VITROS MicroSlide technology.

Row | IC50 [1] [nM] | Compound | IC50 [2] [nM] | cell death in p53 KO versus control cells [3] | p53 and p21 time course in NVL^WT tumor [4] | p53 protein levels in NVL^WT tumor [4] | body weight, red and white blood cells, hemoglobin, platelets, alanine transaminase, blood urea nitrogen versus vehicle [5] | overt toxicity [5]
1 | 2400 | COCCN1C(=O)c2ccccc2Sc2cc(NC(=O)c3ccoc3)ccc21 [MM017] | 460 | substantially lower in p53 KO cells | – | – | – | –
2 | – | CC#CCN1C(=O)c2ccc(F)cc2Sc2cc(NC(=O)c3ccc4oc(=O)n(C)c4c3)ccc21 [MM927, N-(10-(But-2-yn-1-yl)-3-fluoro-11-oxo-10,11-dihydrodibenzo[b,f][1,4]thiazepin-7-yl)-3-methyl-2-oxo-2,3-dihydrobenzo[d]oxazole-5-carboxamide] | – | – | remained elevated at 12 hours and decreased to basal levels by 24 hours | increased 3 hours after injection | no significant difference | no signs of overt toxicity
